Patent publication US20080176261A1, “Colorimetric Substrate and Methods for Detecting Poly(ADP-ribose) Polymerase Activity including PARP Enzymes PARP-1, VPARP, and Tankyrase-1” (THE BOARD OF TRUSTEES OF THE UNIVERSITY OF ILLINOIS, priority 2007, published 2008)

Legend:
PARP-1 = PARP-1 (Homo sapiens, UniProt P09874); test: biochemical
Experimental: (§1) For these measurements, concentrations of DPQ ranging from 0.05 nM to 10 μM were added to a 96-well plate containing PARP assay buffer and ADP-ribose-pNP and the absorbance at 405 nm was measured in triplicate.
(§2) Determination of IC50 values for PARP inhibitors. To determine IC50 values of the PARP inhibitors, 22.5 μL of PARP assay buffer containing varying concentrations of DPQ and 20 μg/mL DNase activated DNA (for PARP-1 only) were added into the wells of a 384-well plate. A 22.5 μL volume of PARP at a concentration of 5 μg/mL PARP-1, 40 μg/mL VPARP and 40 μg/mL tankyrase-1 in PARP assay buffer was added. The reaction was initiated by the addition of 5 μL of a 2.5 mM solution of ADP-ribose-pNP in PARP assay buffer, bringing the final concentration to 2.5 μg/mL PARP-1 with 10 μg/mL DNA or 20 μg/mL VPARP or 20 μg/mL tankyrase-1, 250 μM ADP-ribose-pNP with varying concentrations of inhibitors in a total volume of 50 μL. The plate was then read every 2 minutes for 2 hours at 405 nm on a SpectraMax 384 plate reader (Molecular Devices). […]
(§3) Data analysis. Data from the plate reader was imported into Excel where appropriate subtractions were made and the data was plotted. Graphs were analyzed using Table Curve 2D. […]

tankyrase-1 = molecular target: T1, tankyrase-1 (Homo sapiens, UniProt O95271); test: IC50 determination of PARP inhibitor with ADP-ribose-pNP substrate, tankyrase-1; type: biochemical; details: 250 μM ADP-ribose-pNP
T1 construct: The SAM and PARP domain of tankyrase was subcloned into pGEX-5X-1; made in house; host or cells: E. coli Rosetta
T1 sequence (O95271 1030-1327): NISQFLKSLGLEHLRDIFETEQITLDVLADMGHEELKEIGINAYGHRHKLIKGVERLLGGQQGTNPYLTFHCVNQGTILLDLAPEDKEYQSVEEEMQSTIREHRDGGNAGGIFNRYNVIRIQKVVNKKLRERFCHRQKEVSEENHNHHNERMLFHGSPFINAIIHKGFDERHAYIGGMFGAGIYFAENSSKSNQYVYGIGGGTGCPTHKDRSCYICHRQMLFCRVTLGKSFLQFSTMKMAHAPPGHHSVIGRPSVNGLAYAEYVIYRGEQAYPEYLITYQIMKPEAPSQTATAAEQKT
Experimental: as §1, §2, §3

VPARP = molecular target: T2, VPARP (Homo sapiens, UniProt Q9UKK3); test: IC50 determination of PARP inhibitor with ADP-ribose-pNP substrate, VPARP; type: biochemical; details: 250 μM ADP-ribose-pNP
T2 construct: The plasmid with the catalytic domain of VPARP, pET28b-p193cat; made in house; host or cells: E. coli Rosetta
T2 sequence (Q9UKK3 369-573 limits assumed): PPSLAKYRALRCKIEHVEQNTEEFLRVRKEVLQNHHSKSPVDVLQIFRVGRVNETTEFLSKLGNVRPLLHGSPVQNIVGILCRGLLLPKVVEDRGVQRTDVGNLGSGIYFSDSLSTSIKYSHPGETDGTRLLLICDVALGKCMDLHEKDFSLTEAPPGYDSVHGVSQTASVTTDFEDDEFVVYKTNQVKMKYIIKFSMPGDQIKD
Experimental: as §1, §2, §3

PARP-1, sequence (P09874 whole entry): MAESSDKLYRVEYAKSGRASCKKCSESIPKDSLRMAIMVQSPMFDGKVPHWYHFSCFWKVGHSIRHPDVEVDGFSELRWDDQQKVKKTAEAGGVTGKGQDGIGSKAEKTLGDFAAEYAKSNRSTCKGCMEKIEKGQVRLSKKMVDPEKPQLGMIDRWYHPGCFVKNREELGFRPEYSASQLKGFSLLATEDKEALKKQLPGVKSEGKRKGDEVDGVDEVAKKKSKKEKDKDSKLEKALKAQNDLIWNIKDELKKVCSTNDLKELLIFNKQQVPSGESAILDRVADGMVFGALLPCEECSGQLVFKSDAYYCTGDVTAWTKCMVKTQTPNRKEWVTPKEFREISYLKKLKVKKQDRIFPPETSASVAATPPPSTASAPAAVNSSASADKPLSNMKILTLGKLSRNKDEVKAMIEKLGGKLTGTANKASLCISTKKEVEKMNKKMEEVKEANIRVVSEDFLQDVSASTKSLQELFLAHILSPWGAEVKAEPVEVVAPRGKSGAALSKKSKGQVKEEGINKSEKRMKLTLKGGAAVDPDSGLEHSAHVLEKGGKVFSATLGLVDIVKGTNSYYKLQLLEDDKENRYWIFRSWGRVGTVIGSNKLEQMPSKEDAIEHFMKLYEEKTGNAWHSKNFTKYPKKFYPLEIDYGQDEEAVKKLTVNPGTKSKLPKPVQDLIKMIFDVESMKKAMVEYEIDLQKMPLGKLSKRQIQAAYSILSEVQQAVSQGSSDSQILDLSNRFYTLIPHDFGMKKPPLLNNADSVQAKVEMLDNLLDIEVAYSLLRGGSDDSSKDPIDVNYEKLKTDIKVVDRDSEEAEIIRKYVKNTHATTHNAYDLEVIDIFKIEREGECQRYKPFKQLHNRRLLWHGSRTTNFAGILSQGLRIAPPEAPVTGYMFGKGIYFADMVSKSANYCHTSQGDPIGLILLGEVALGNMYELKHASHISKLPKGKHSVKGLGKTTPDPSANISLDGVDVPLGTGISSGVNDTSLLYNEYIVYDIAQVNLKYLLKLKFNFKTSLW

For `O=C1NCCc2c(OCCCCN3CCCCC3)cccc21` [DPQ, 3,4-Dihydro-5-[4-(1-piperidinyl)butoxyl]-1 (2H)-isoquinolinone], the IC50 (PARP-1) was 0.023 µM, the IC50 (tankyrase-1) was 0.033 µM and the IC50 (VPARP) was 0.281 µM.
